From ChEMBL document CHEMBL1649582, “Novel expression vector for secretion of cecropin AD in Bacillus subtilis with enhanced antimicrobial activity” (Antimicrob Agents Chemother, 2009)
In brackets after ≈: the same amount, converted by molar mass. Activity calls are given as the source filed them. The calls are words filed in the database; no cut-off is given here. Where a SMILES comes first, the peptide text is derived from it.

Assays:
Staphylococcus aureus [1] = test: Antimicrobial activity against Staphylococcus aureus IVDC C56005 assessed as microbial growth inhibition at 55 degC for 20 mins; assay type: functional, organism-based
Staphylococcus aureus [2] = test: Antimicrobial activity against Staphylococcus aureus IVDC C56005 assessed as microbial growth inhibition in presence of proteinase K; assay type: functional, organism-based
Escherichia coli [3] = test: Antimicrobial activity against Escherichia coli K12D31 by microdilution assay; assay type: functional
Escherichia coli [4] = test: Antimicrobial activity against Escherichia coli K99 by microdilution assay; assay type: functional
Enterococcus faecalis = test: Antimicrobial activity against Streptococcus faecalis IVDC C55614 by microdilution assay; assay type: functional
Escherichia coli [5] = test: Antimicrobial activity against Escherichia coli K88 by microdilution assay; assay type: functional
Staphylococcus aureus [6] = test: Antimicrobial activity against Staphylococcus aureus IVDC C56005 assessed as microbial growth inhibition at >85 degC for 20 mins; assay type: functional, organism-based
[7] = Toxicity in human RBCs assessed as induction hemolysis at 0.01 to 200 ug/mL; assay type: cell-based; details: erythrocyte
Staphylococcus aureus [8] = test: Antimicrobial activity against Staphylococcus aureus IVDC C56005 assessed as microbial growth inhibition in presence of pepsin; assay type: functional, organism-based
Staphylococcus aureus [9] = test: Antimicrobial activity against Staphylococcus aureus IVDC C56005 assessed as microbial growth inhibition at pH 4 to 9; assay type: functional, organism-based
Salmonella enteritidis = test: Antimicrobial activity against Salmonella enterica serovar Enteritidis IVDC C79-52 by microdilution assay; assay type: functional, Salmonella enterica subsp. enterica serovar Enteritidis
Staphylococcus aureus [10] = test: Antimicrobial activity against Staphylococcus aureus IVDC C56005 assessed as microbial growth inhibition in presence of trypsin; assay type: functional, organism-based
Staphylococcus aureus [11] = test: Antimicrobial activity against Staphylococcus aureus IVDC C56005 by microdilution assay; assay type: functional
Staphylococcus aureus [12] = test: Antimicrobial activity against Staphylococcus aureus IVDC C56005 assessed as microbial growth inhibition at pH <4.0; assay type: functional, organism-based
Salmonella typhimurium = test: Antimicrobial activity against Salmonella enterica serovar Typhimurium IVDC C77-31 by microdilution assay; assay type: functional, Salmonella enterica subsp. enterica serovar Typhimurium

For CC[C@H](C)[C@H](NC(=O)[C@H](CCCCN)NC(=O)[C@H](CCCCN)NC(=O)[C@H](Cc1ccccc1)NC(=O)[C@H](CC(C)C)NC(=O)[C@H](CCCCN)NC(=O)[C@H](Cc1c[nH]c2ccccc12)NC(=O)[C@@H](N)CCCCN)C(=O)N[C@@H](CCC(=O)O)C(=O)N[C@@H](CCCCN)C(=O)N[C@H](C(=O)NCC(=O)N[C@@H](CCC(N)=O)C(=O)N[C@@H](CCCNC(=N)N)C(=O)N[C@H](C(=O)N[C@@H](CCCNC(=N)N)C(=O)N[C@@H](CC(=O)O)C(=O)N[C@@H](C)C(=O)N[C@H](C(=O)N[C@H](C(=O)N[C@@H](CO)C(=O)N[C@@H](C)C(=O)NCC(=O)N1CCC[C@H]1C(=O)N[C@@H](C)C(=O)N[C@H](C(=O)N[C@@H](C)C(=O)N[C@H](C(=O)N[C@H](C(=O)N[C@@H](C)C(=O)N[C@@H](CCC(N)=O)C(=O)N[C@@H](C)C(=O)N[C@H](C(=O)N[C@@H](C)C(=O)N[C@@H](CC(C)C)C(=O)N[C@@H](C)C(=O)N[C@@H](CCCCN)C(=O)O)[C@@H](C)O)C(C)C)[C@@H](C)O)C(C)C)[C@@H](C)CC)C(C)C)C(C)C)C(C)C [CECROPIN AD] (H-KWKLFKKIEKVGQRVRDAVISAGPAVATVAQATALAK-OH), the “growth inhibition (GI)” value (Staphylococcus aureus [1]) was “Active”, the “growth inhibition (GI)” value (Staphylococcus aureus [2]) was “Active” and the MIC (Escherichia coli [3]) was 1.8 µg/mL (≈ 0.456 µM). It also gave an MIC (Escherichia coli [4]) of 2 µg/mL (≈ 0.506 µM), an MIC (Enterococcus faecalis) of 24 µg/mL (≈ 6.07 µM) and an MIC (Escherichia coli [5]) of 2 µg/mL (≈ 0.506 µM). The “growth inhibition (GI)” value (Staphylococcus aureus [6]) was “inactive”, the Activity [7] was “Non-toxic” and the “growth inhibition (GI)” value (Staphylococcus aureus [8]) was “Active”. For the same molecule, the “growth inhibition (GI)” value (Staphylococcus aureus [9]) was “Active”, the MIC (Salmonella enteritidis) was 16 µg/mL (≈ 4.05 µM) and the “growth inhibition (GI)” value (Staphylococcus aureus [10]) was “Active”. The MIC (Staphylococcus aureus [11]) was 0.2 µg/mL (≈ 0.0506 µM), the “growth inhibition (GI)” value (Staphylococcus aureus [12]) was “inactive” and the MIC (Salmonella typhimurium) was 8 µg/mL (≈ 2.02 µM).
